# Source: patent EP4603105A1, “PHARMACEUTICAL COMPOSITION CONTAINING CYCLIC COMPOUND HAVING SELECTIVE KRAS INHIBITORY EFFECT AGAINST HRAS AND NRAS” (CHUGAI SEIYAKU KABUSHIKI KAISHA, priority 2022, dated 2024)
# *1 amine or outer side, *2 acyl side, *3 side chain or, on linkers, in order; H or OH if unused. Where a SMILES comes first, the peptide text is derived from it. Bridges are numbered along the chain shown (N, C = ends). [ ]: non-standard residue; d: D form. The star is where a group is joined. hPhe(3,5-F2-4-CF3) = N[C@@H](CCc1cc(F)c(C(F)(F)F)c(F)c1)C(=O)O; hPhe(3-Cl-4-CF3) = N[C@@H](CCc1ccc(C(F)(F)F)c(Cl)c1)C(=O)O; NPrPhe(4-CF3) = CCCN[C@@H](Cc1ccc(C(F)(F)F)cc1)C(=O)O; NEtPhe(4-Me) = CCN[C@@H](Cc1ccc(C)cc1)C(=O)O; X16 = O=C([C@@H](N[*:1])C1CC(F)(F)C1)[*:2]; NMeGly(cPent) = CN[C@H](C(=O)O)C1CCCC1; NMeD = CN[C@@H](CC(=O)O)C(=O)O; NMeL = CN[C@@H](CC(C)C)C(=O)O; Morpholide = C1CN(*)CCO1; NMeA = CN[C@@H](C)C(=O)O; Ac5c = NC1(C(=O)O)CCCC1; Ac4c = NC1(C(=O)O)CCC1; Sar = CNCC(=O)O
# Experiments:
# [1] = biological target: HRAS wild-type protein (Homo sapiens, UniProt P01112); experiment: Binding to HRAS by surface plasmon resonance (SPR), KD and KD ratio to KRAS
# HRAS wild-type protein, sequence (P01112 whole entry): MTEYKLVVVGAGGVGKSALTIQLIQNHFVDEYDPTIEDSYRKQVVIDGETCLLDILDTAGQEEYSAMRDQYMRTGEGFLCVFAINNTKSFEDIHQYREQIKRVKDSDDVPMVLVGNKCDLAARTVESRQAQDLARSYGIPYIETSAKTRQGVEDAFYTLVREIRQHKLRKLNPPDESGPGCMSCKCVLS
# Summary of the method: (§1)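 Measured at 30°C: SPR with GDP-loaded, E. coli-expressed biotin-Avi RAS captured (~100–300 RU), ascending 75 s compound injections, HBS pH 7.4 with GDP, MgCl2, 4% DMSO. KD from 1:1 fit.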
# [2] = system: human lung cancer strain NCI-H441; assay type: cell-based
# Summary of the method: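 Signal came from […] measured per well once the reagent was added. Beforehand, cells were cultured at 37°C and 5% carbon dioxide on a compound series serially diluted in dimethyl sulfoxide.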
# [3] = biological target: GDP-bound NRAS wild-type protein (Homo sapiens, UniProt P01111); experiment: Binding to NRAS by surface plasmon resonance (SPR), KD and KD ratio to KRAS
# GDP-bound NRAS wild-type protein, sequence (P01111 whole entry): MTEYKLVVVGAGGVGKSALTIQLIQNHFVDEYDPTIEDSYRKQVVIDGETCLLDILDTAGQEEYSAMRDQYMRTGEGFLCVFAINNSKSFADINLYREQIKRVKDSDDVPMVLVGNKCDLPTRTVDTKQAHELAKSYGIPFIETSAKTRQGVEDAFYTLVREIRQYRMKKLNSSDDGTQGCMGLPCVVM
# Summary of the method: as §1
# [4] = ratio of KD for HRAS wild-type protein to KD for KRAS
# [5] = ratio of KD for GDP-bound NRAS wild-type protein to KD for KRAS
# [6] = ratio of the KD value with respect to HRAS wild-type protein to the KD value with respect to KRAS
# [7] = ratio of the KD value with respect to GDP-bound NRAS wild-type protein to the KD value with respect to KRAS
# [8] = ratio of KD value for HRAS wild-type protein to KD value for KRAS (SPR)
# [9] = ratio of KD value for GDP-bound NRAS wild-type protein to KD value for KRAS (SPR)
Structure (SMILES),IC50 [2] [nM],"HRAS /KRAS [1, 4]","NRAS /KRAS [3, 5]",also measured
CCO[C@@H]1C[C@H]2C(=O)NC3(CC(C)(C)C3)C(=O)N(C)[C@@H](C(CC)CC)C(=O)N(C)[C@H](C(=O)N(C)C)CC(=O)N(C)[C@@H](CC(C)C)C(=O)N[C@@H]([C@@H](C)CC)C(=O)N(C)CC(=O)N(C)[C@H]3C/C=C\CCN(C3=O)[C@@H](Cc3ccc(C(F)(F)F)cc3)C(=O)N(C)CC(=O)N[C@@H](CCc3ccc(Cl)c(Cl)c3)C(=O)N2C1 [PP2176],52.9,–,–,"HRAS /KRAS [1, 6]: A (a compound having 10 or more and less than 20 is denoted as A); NRAS /KRAS [3, 7]: AA (a compound having 20 or more is denoted as AA)"
C#CC[C@H]1C(=O)N[C@@H]([C@@H](C)CC)C(=O)N(C)CC(=O)N(C)[C@H]2C/C=C\CCN(C2=O)[C@@H](Cc2ccc(C(F)(F)F)cc2)C(=O)N(C)CC(=O)N[C@@H](CCc2ccc(C(F)(F)F)c(Cl)c2)C(=O)N2CC3(CC3)C[C@H]2C(=O)NC2(CC(C)(C)C2)C(=O)N(C)[C@@H](C2CCCC2)C(=O)N(C)[C@H](C(=O)N(C)C)CC(=O)N1C [PP2980],11.7,B (a compound having 3 or more and less than 10 is denoted as B),A (a compound having 10 or more and less than 20 is denoted as A),–
CCO[C@@H]1C[C@H]2C(=O)NC3(CC(F)(F)C3)C(=O)N(C)[C@@H](C3CCCC3)C(=O)N(C)[C@H](C(=O)N(C)CC)CC(=O)N(C)[C@@H](CC3CC3)C(=O)N[C@@H]([C@@H](C)CC)C(=O)N(C)CC(=O)N(C)[C@H]3C/C=C\CCN(C3=O)[C@@H](Cc3ccc(C(F)(F)F)cc3)C(=O)N(C)CC(=O)N[C@@H](CCc3cc(F)c(C(F)(F)F)c(F)c3)C(=O)N2C1 [PP1738],5.1,–,–,"HRAS /KRAS [1, 8]: A (a compound having 10 or more and less than 20 is denoted as A); NRAS /KRAS [3, 9]: AA (a compound having 20 or more is denoted as AA)"
CC[C@H](C)[C@@H]1NC(=O)[C@H](C)N(C)C(=O)C[C@@H](C(=O)N2CCOCC2)N(C)C(=O)[C@H](C2CCCC2)N(C)C(=O)C2(CCCC2)NC(=O)[C@@H]2CCCN2C(=O)[C@H](CCc2ccc(C(F)(F)F)c(Cl)c2)NC(=O)CN(C)C(=O)[C@H](Cc2ccc(C)cc2)N(CC)C(=O)CN(C)C(=O)CN(C)C1=O [PP0031] ([NMeA]I[Sar][Sar][NEtPhe(4-Me)][Sar][hPhe(3-Cl-4-CF3)]P[Ac5c][NMeGly(cPent)][NMeD]-Morpholide; lactam N-11),11.4,C (A compound having a KD ratio of 0.1 or more and less than 3 is denoted as C),B (a compound having 3 or more and less than 10 is denoted as B),–
CCO[C@@H]1C[C@H]2C(=O)NC3(CC(C)(C)C3)C(=O)N(C)[C@@H](C3CCCC3)C(=O)N(C)[C@H](C(=O)N(C)C)CC(=O)N(C)[C@@H](CC(C)C)C(=O)N[C@@H]([C@@H](C)CC)C(=O)N(C)CC(=O)N(C)[C@H]3C/C=C\CCN(C3=O)[C@@H](Cc3ccc4c(c3)CCC4(F)F)C(=O)N(C)CC(=O)N[C@@H](CCc3ccc(C(F)(F)F)c(OC)c3)C(=O)N2C1 [PP2695],3.8,B (a compound having 3 or more and less than 10 is denoted as B),A (a compound having 10 or more and less than 20 is denoted as A),–
CCO[C@@H]1C[C@H]2C(=O)NC3(CCC3)C(=O)N(C)[C@@H](C3CCCC3)C(=O)N(C)[C@H](C(=O)N(C)CCOC)CC(=O)N(C)[C@@H](CC)C(=O)N[C@@H]([C@@H](C)CC)C(=O)N(C)CC(=O)N(C)[C@H]3C/C=C\CCN(C3=O)[C@@H](Cc3ccc(C(F)(F)F)cc3)C(=O)N(C)CC(=O)N[C@@H](CCc3ccc4sccc4c3)C(=O)N2C1 [PP1322],56.2,–,–,HRAS /KRAS ([1]; ratio of KD with respect to HRAS wild-type protein to KD with respect to KRAS): A (a compound having 10 or more and less than 20 is denoted as A); NRAS /KRAS ([3]; ratio of KD with respect to GDP-bound NRAS wild-type protein to KD with respect to KRAS): A (a compound having 10 or more and less than 20 is denoted as A)

# The remaining compounds from weak to strong by IC50 [2], led by results:
IC50 [2] [nM],Structure (SMILES),"HRAS /KRAS [1, 4]","NRAS /KRAS [3, 5]",also measured
130,CCO[C@@H]1C[C@H]2C(=O)NC3(CCC3)C(=O)N(C)[C@@H](C(C)(C)C)C(=O)N(C)[C@H](C(=O)N3CCOCC3)CC(=O)N(C)[C@@H](CC(C)C)C(=O)N[C@@H]([C@@H](C)CC)C(=O)N(C)CC(=O)N(C)[C@H]3CCCCCN(C3=O)[C@@H](Cc3ccc(C(F)(F)F)cc3)C(=O)N(C)CC(=O)N[C@@H](CCc3cc(F)c(C(F)(F)F)c(F)c3)C(=O)N2C1 [PP0823],B (a compound having 3 or more and less than 10 is denoted as B),A (a compound having 10 or more and less than 20 is denoted as A),–
92.3,CCCN1C(=O)CN(C)C(=O)CN(C)C(=O)[C@H]([C@@H](C)CC)NC(=O)[C@H](CC(C)C)N(C)C(=O)C[C@@H](C(=O)N2CCOCC2)NC(=O)[C@H](C2CCCC2)N(C)C(=O)C2(CCC2)NC(=O)[C@@H]2CCCN2C(=O)[C@H](CCc2ccc(C(F)(F)F)c(Cl)c2)NC(=O)CN(C)C(=O)[C@@H]1Cc1ccc(C(F)(F)F)cc1 [PP0320] ([NMeL]I[Sar][Sar][NPrPhe(4-CF3)][Sar][hPhe(3-Cl-4-CF3)]P[Ac4c][NMeGly(cPent)]D-Morpholide; lactam N-11),B (a compound having 3 or more and less than 10 is denoted as B),B (a compound having 3 or more and less than 10 is denoted as B),–
45.7,CCO[C@@H]1C[C@H]2C(=O)NC3(CCC3)C(=O)N(C)[C@@H](C(CC)CC)C(=O)N(C)[C@H](C(=O)N(C)C)CC(=O)N(C)[C@@H](CC3CCCC3)C(=O)N[C@@H]([C@@H](C)CC)C(=O)N(C)CC(=O)N(C)[C@H]3C/C=C\CCN(C3=O)[C@@H](Cc3ccc(F)cc3C)C(=O)N(C)CC(=O)N[C@@H](CCc3cc(F)c(C(F)(F)F)c(F)c3)C(=O)N2C1 [PP1516],–,–,"HRAS /KRAS [1, 8]: B (a compound having 3 or more and less than 10 is denoted as B); NRAS /KRAS [3, 9]: A (a compound having 10 or more and less than 20 is denoted as A)"
31.2,CCC[C@H]1C(=O)N[C@@H]([C@@H](C)CC)C(=O)N(C)CC(=O)N(C)[C@H]2C/C=C\CCN(C2=O)[C@@H](Cc2ccc(C)cc2)C(=O)N(C)CC(=O)N[C@@H](CCc2cc(F)c(C(F)(F)F)c(F)c2)C(=O)N2CC3(CC3)C[C@H]2C(=O)NC2(CC(C)(C)C2)C(=O)N(C)[C@@H](CC(F)(F)F)C(=O)N(C)[C@H](C(=O)N(C)C)CC(=O)N1C [PP3003],A (a compound having 10 or more and less than 20 is denoted as A),AA (a compound having 20 or more is denoted as AA),–
24.3,CC[C@H](C)[C@@H]1NC(=O)[C@H](CC)N(C)C(=O)C[C@@H](C(=O)N(CC)CC)N(C)C(=O)[C@H](C2CCCC2)N(C)C(=O)C2(CC(C)(C)C2)NC(=O)[C@@H]2C[C@H](C)CN2C(=O)[C@H](CCc2ccc(C(F)(F)F)c(OC)c2)NC(=O)CN(C)C(=O)[C@H](Cc2ccc(C)cc2)N2CC/C=C\C[C@@H](C2=O)N(C)C(=O)CN(C)C1=O [PP1839],–,–,"HRAS /KRAS [1, 8]: B (a compound having 3 or more and less than 10 is denoted as B); NRAS /KRAS [3, 9]: A (a compound having 10 or more and less than 20 is denoted as A)"
11.1,CCCOC[C@H]1C(=O)N[C@@H]([C@@H](C)CC)C(=O)N(C)CC(=O)N(C)[C@H]2C/C=C\CCN(C2=O)[C@@H](Cc2ccc(C(F)(F)F)cc2)C(=O)N(C)CC(=O)N[C@@H](CCc2cc(F)c(Cl)c(F)c2)C(=O)N2C[C@H](OCC)C[C@H]2C(=O)NC2(CC(C)(C)C2)C(=O)N(C)[C@@H](C2CCCC2)C(=O)N(C)[C@H](C(=O)N(C)C)CC(=O)N1C [PP1764],–,–,"HRAS /KRAS [1, 8]: A (a compound having 10 or more and less than 20 is denoted as A); NRAS /KRAS [3, 9]: AA (a compound having 20 or more is denoted as AA)"
10.7,"CCCN1C(=O)CN(C)C(=O)CN(C)C(=O)[C@H](C2CC(F)(F)C2)NC(=O)[C@H](CC(C)C)N(C)C(=O)C[C@@H](C(=O)N(C)C)N(C)C(=O)[C@H](C2CCCC2)N(C)C(=O)C2(CCCC2)NC(=O)[C@@H]2CCCN2C(=O)[C@H](CCc2cc(F)c(C(F)(F)F)c(F)c2)NC(=O)CN(C)C(=O)[C@@H]1Cc1ccc(C(F)(F)F)cc1 [PP0748] ([NMeL][X16][Sar][Sar][NPrPhe(4-CF3)][Sar][hPhe(3,5-F2-4-CF3)]P[Ac5c][NMeGly(cPent)][NMeD]-NMe2; lactam N-11)",–,–,"HRAS /KRAS [1, 6]: B (a compound having 3 or more and less than 10 is denoted as B); NRAS /KRAS [3, 7]: B (a compound having 3 or more and less than 10 is denoted as B)"
8.8,CCO[C@@H]1C[C@H]2C(=O)NC3(CC(C)(C)C3)C(=O)N(C)[C@@H](C3CCCC3)C(=O)N(C)[C@H](C(=O)N(C)CC)CC(=O)N(C)[C@@H](C(C)C)C(=O)N[C@@H]([C@@H](C)CC)C(=O)N(C)CC(=O)N(C)[C@H]3C/C=C\CCN(C3=O)[C@@H](Cc3ccc(C(F)(F)F)cc3)C(=O)N(C)CC(=O)N[C@@H](CCc3cc(F)c(C(F)(F)F)c(F)c3)C(=O)N2C1 [PP2034],–,–,"HRAS /KRAS [1, 6]: A (a compound having 10 or more and less than 20 is denoted as A); NRAS /KRAS [3, 7]: A (a compound having 10 or more and less than 20 is denoted as A)"
2.9,CCC(CC)[C@H]1C(=O)N(C)[C@H](C(=O)N(C)C)CC(=O)N(C)[C@H]2CCC/C=C/c3ccc(cc3)C[C@@H](C(=O)N(C)CC(=O)N[C@@H](CCc3cc(F)c(C(F)(F)F)c(F)c3)C(=O)N3CCC[C@H]3C(=O)NC3(CC(C)(C)C3)C(=O)N1C)N1CC/C=C\C[C@@H](C1=O)N(C)C(=O)CN(C)C(=O)[C@H]([C@@H](C)CC)NC2=O [PP2600],A (a compound having 10 or more and less than 20 is denoted as A),A (a compound having 10 or more and less than 20 is denoted as A),–
